# Reference: patent US8404708B2, “Dual NK1/NK3 receptor antagonists” (Hoffmann-La Roche Inc., priority 2004, dated 2013)
# Like-named read-outs stand apart in the source and are kept apart here.
# Legend:
# human NK1 receptor = human NK1 receptor (Homo sapiens, UniProt P25103); test: NK1 receptor binding, [3H]substance P displacement, CHO cell membranes
# [1] = target: T1, Recombinant human NK3 (hNK3) receptor (Homo sapiens, UniProt P29371); test: NK3 receptor binding, [3H]SR142801 displacement, membrane preparations
# T1 construct: expressed in transfected cells
# T1 sequence (P29371 1-465): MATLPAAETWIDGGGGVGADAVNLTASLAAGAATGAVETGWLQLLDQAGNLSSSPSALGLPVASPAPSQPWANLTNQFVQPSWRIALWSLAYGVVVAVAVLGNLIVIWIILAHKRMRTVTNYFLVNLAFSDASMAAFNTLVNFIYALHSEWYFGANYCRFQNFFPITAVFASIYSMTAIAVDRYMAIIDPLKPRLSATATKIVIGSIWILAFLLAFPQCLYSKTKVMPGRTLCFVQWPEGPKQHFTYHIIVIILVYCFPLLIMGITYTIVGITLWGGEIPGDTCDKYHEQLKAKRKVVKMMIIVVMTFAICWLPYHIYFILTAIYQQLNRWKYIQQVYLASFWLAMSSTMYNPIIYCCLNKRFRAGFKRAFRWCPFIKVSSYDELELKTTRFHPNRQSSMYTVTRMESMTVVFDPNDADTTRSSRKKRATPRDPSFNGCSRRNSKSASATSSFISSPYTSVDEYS
# How it was run: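 Buffer: Tris-HCl 50 mM pH 7.4, BSA 0.1%, MnCl2 4 mM, phosphoramidon 1 μM. ~2.5 μg membrane/well, 90 min RT. NSB with SB222200 (10 μM). Vacuum filtration over 0.3% PEI-treated GF/C, cold Tris/BSA washes, scintillation count; duplicates, ≥2 experiments.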
# [2] = first value of the cell pKi NK1/NK3, human NK1 receptor, [3H]substance P
# [3] = second value of the cell pKi NK1/NK3, hNK3 receptor, [3H]SR142801
# [4] = first value of the cell NK1/NK3, read-out: pKi NK1 (converted)
# [5] = second value of the cell NK1/NK3, read-out: pKi NK3 (converted)
# human NK1 receptor, sequence (P25103 whole entry): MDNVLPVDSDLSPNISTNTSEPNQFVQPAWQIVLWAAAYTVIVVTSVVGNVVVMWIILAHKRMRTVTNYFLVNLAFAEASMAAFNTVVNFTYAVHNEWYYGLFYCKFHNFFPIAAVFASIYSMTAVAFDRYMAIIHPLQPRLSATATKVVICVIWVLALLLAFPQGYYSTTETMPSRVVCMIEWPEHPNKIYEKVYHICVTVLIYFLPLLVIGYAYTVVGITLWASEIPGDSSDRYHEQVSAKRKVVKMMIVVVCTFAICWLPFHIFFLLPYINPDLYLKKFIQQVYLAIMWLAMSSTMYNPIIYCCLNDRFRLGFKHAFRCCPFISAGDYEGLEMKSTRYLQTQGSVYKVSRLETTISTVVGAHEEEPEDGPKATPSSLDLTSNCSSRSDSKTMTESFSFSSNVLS
SMILES,Ki (human NK1 receptor; [2]) [nM],"Ki [1, 3] [nM]",Ki (human NK1 receptor; [4]) [nM],"Ki [1, 5] [nM]"
"CN(C(=O)C(C)(C)c1cc(C(F)(F)F)cc(C(F)(F)F)c1)c1cnc(N(CCO)CCO)cc1-c1ccc(F)cc1 [Example 88, N-[6-[Bis-(2-hydroxy-ethyl)-amino]-4-(4-fluoro-phenyl)-pyridin-3-yl]-2-(3,5-bis-trifluoromethyl-phenyl)-N-methyl-isobutyramide]",1.35,9.33,,
"Cc1ccccc1-c1cc(N2CCC[C@H]2CO)ncc1N(C)C(=O)C(C)(C)c1cc(Cl)cc(OC(F)F)c1 [Example 36, (S)-2-(3-Chloro-5-difluoromethoxy-phenyl)-N-[6-(2-hydroxymethyl-pyrrolidin-1-yl)-4-o-tolyl-pyridin-3-yl]-N-methyl-isobutyramide]",4.27,0.708,,
"CCN(C(C)=O)[C@H]1CCN(c2cc(-c3ccc(F)cc3C)c(N(C)C(=O)C(C)(C)c3cc(C(F)(F)F)cc(C(F)(F)F)c3)cn2)C1 [Example 108, (S)-N-[6-[3-(Acetyl-ethyl-amino)-pyrrolidin-1-yl]-4-(4-fluoro-2-methyl-phenyl)-pyridin-3-yl]-2-(3,5-bis-trifluoromethyl-phenyl)-N-methyl-isobutyramide]",2.45,8.91,,
"Cc1cc(F)ccc1-c1cc(N2CCC[C@H]2CO)ncc1N(C)C(=O)C(C)(C)c1cc(F)cc(F)c1 [Example 28, (S)-2-(3,5-Difluoro-phenyl)-N-[4-(4-fluoro-2-methyl-phenyl)-6-(2-hydroxymethyl-pyrrolidin-1-yl)-pyridin-3-yl]-N-methyl-isobutyramide]",2.82,3.98,,
"Cc1cc(F)ccc1-c1cc(N2CC[C@H](NS(C)(=O)=O)C2)ncc1N(C)C(=O)C(C)(C)c1cc(C(F)(F)F)cc(C(F)(F)F)c1 [Example 104, (S)-2-(3,5-Bis-trifluoromethyl-phenyl)-N-[4-(4-fluoro-2-methyl-phenyl)-6-(3-methanesulfonylamino-pyrrolidin-1-yl)-pyridin-3-yl]-N-methyl-isobutyramide]",1.62,6.76,,
"Cc1ccccc1-c1cc(N2C[C@H](O)C[C@H]2CO)ncc1N(C)C(=O)C(C)(C)c1cc(Cl)cc(OC(F)F)c1 [Example 37, (2S,4R)-2-(3-Chloro-5-difluoromethoxy-phenyl)-N-[6-(4-hydroxy-2-hydroxymethyl-pyrrolidin-1-yl)-4-o-tolyl-pyridin-3-yl]-N-methyl-isobutyramide]",1.2,0.617,,
"CCN(CCO)c1cc(-c2ccc(F)cc2)c(N(C)C(=O)C(C)(C)c2cc(C(F)(F)F)cc(C(F)(F)F)c2)cn1 [Example 116, 2-(3,5-Bis-trifluoromethyl-phenyl)-N-[6-[ethyl-(2-hydroxy-ethyl)-amino]-4-(4-fluoro-phenyl)-pyridin-3-yl]-N-methyl-isobutyramide]",3.89,32.4,,
"CN(CCO)c1cc(-c2ccc(F)cc2)c(N(C)C(=O)C(C)(C)c2cc(C(F)(F)F)cc(C(F)(F)F)c2)cn1 [Example 115, 2-(3,5-bis-trifluoromethyl-phenyl)-N-{4-(4-fluoro-phenyl)-6-[(2-hydroxy-ethyl)-methyl-amino]-pyridin-3-yl}-N-methyl-isobutyramide]",1.86,30.2,,
"COc1cc(Cl)cc(C(C)(C)C(=O)N(C)c2cnc(N3CCC[C@H]3CO)cc2-c2ccccc2C)c1 [Example 17, (S)-2-(3-Chloro-5-methoxy-phenyl)-N-[6-(2-hydroxymethyl-pyrrolidin-1-yl)-4-o-tolyl-pyridin-3-yl]-N-methyl-isobutyramide]",3.89,3.16,,
"CN(C(=O)C(C)(C)c1cc(C(F)(F)F)cc(C(F)(F)F)c1)c1cnc(N2C[C@H](O)C[C@H]2CO)cc1-c1ccccc1Br [Example 129, (2S,4R)-2-(3,5-Bis-trifluoromethyl-phenyl)-N-[4-(2-bromo-phenyl)-6-(4-hydroxy-2-hydroxymethyl-pyrrolidin-1-yl)-pyridin-3-yl]-N-methyl-isobutyramide]",0.851,2.63,,
"Cc1ccccc1-c1cc(NC[C@H](O)CO)ncc1N(C)C(=O)C(C)(C)c1cc(C(F)(F)F)cc(C(F)(F)F)c1 [Example 122, (S)-2-(3,5-Bis-trifluoromethyl-phenyl)-N-[6-(2,3-dihydroxy-propylamino)-4-o-tolyl-pyridin-3-yl]-N-methyl-isobutyramide]",1.91,19.5,,

# The next lines start with the values.
Ki (human NK1 receptor; [2]) [nM],"Ki [1, 3] [nM]",Ki (human NK1 receptor; [4]) [nM],"Ki [1, 5] [nM]",SMILES
,,2,10,"Cc1cc(F)ccc1-c1cc(N2C[C@H](O)C[C@@H]2CO)ncc1N(C)C(=O)C(C)(C)c1cc(C(F)(F)F)cc(C(F)(F)F)c1 [Example 258, (2R,4R)-2-(3,5-Bis-trifluoromethyl-phenyl)-N-[4-(4-fluoro-2-methyl-phenyl)-6-(4-hydroxy-2-hydroxymethyl-pyrrolidin-1-yl)-pyridin-3-yl]-N-methyl-isobutyramide]"
4.47,0.977,,,"Cc1c(F)cccc1-c1cc(N2CCC[C@H]2CO)ncc1N(C)C(=O)C(C)(C)c1cc(C(F)(F)F)cc(C(F)(F)F)c1 [Example 167, (S)-2-(3,5-Bis-trifluoromethyl-phenyl)-N-[4-(3-fluoro-2-methyl-phenyl)-6-(2-hydroxymethyl-pyrrolidin-1-yl)-pyridin-3-yl]-N-methyl-isobutyramide]"
,,3.02,5.01,"CN(C(=O)C(C)(C)c1cc(C(F)(F)F)cc(C(F)(F)F)c1)c1cnc(N2CCC[C@H]2CO)cc1-c1ccccc1 [Example 289, (S)-2-(3,5-Bis-trifluoromethyl-phenyl)-N-[6-(2-hydroxymethyl-pyrrolidin-1-yl)-4-phenyl-pyridin-3-yl]-N-methyl-isobutyramide]"
,,1.17,1.41,"Cc1c(F)cccc1-c1cc(N2C[C@H](O)C[C@H]2CO)ncc1N(C)C(=O)C(C)(C)c1cc(C(F)(F)F)cc(C(F)(F)F)c1 [Example 228, (2S,4R)-2-(3,5-Bis-trifluoromethyl-phenyl)-N-[4-(3-fluoro-2-methyl-phenyl)-6-(4-hydroxy-2-hydroxymethyl-pyrrolidin-1-yl)-pyridin-3-yl]-N-methyl-isobutyramide]"
,,5.13,4.27,"Cc1ccncc1-c1cc(N(C)CCO)ncc1N(C)C(=O)C(C)(C)c1cc(C(F)(F)F)cc(C(F)(F)F)c1 [Example 294, 2-(3,5-Bis-trifluoromethyl-phenyl)-N-{6′-[(2-hydroxy-ethyl)-methyl-amino]-4-methyl-[3,4′]bipyridinyl-3′-yl}-N-methyl-isobutyramide]"
2.04,10.5,,,"CN(C(=O)C(C)(C)c1cc(C(F)(F)F)cc(C(F)(F)F)c1)c1cnc(N2C[C@H](O)C[C@H]2CO)cc1-c1ccc(Cl)cc1 [Example 203, (2S,4R)-2-(3,5-Bis-trifluoromethyl-phenyl)-N-[4-(4-chloro-phenyl)-6-(4-hydroxy-2-hydroxymethyl-pyrrolidin-1-yl)-pyridin-3-yl]-N-methyl-isobutyramide]"
,,0.575,1.35,"CN(C(=O)C(C)(C)c1cc(C(F)(F)F)cc(C(F)(F)F)c1)c1cnc(N2C[C@H](O)C[C@H]2CO)cc1-c1cccnc1Cl [Example 232, (2S,4R)-2-(3,5-Bis-trifluoromethyl-phenyl)-N-[2-chloro-6′-(4-hydroxy-2-hydroxymethyl-pyrrolidin-1-yl)-[3,4′]bipyridinyl-3′-yl]-N-methyl-isobutyramide]"
